Results on 24 molecules are retold here after US10710994B2, “Oxadiazole transient receptor potential channel inhibitors” (Genentech, Inc., priority 2018, dated 2020).

Each structure is given as a SMILES string. Like-named read-outs stand apart in the source and are kept apart here.

The target of this assay is human TRPA1 channel (Homo sapiens (Human), UniProt O75762). The assay can be described thus: hTRPA1 CHO Ca2+ FLIPR Tetra assay: block of cinnamaldehyde induced calcium influx. Particulars: CHO cells expressing TRPA1, Hill coefficient fixed to 1.5. Type of assay: cell-based. An outline of the steps:
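TRPA1-expressing CHO cells loaded with calcium indicator dye (1 h 37° C, then 15 min room temperature) in HBSS/20 mM HEPES pH 7.4/0.02% BSA. IC50 from fits with fixed Hill coefficient.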

Setting [1] is: read-out: hTRPA1 IC50 10 min, 10 minutes incubation with compound before cinnamaldehyde (about EC80).
The mark [2] stands for this setting: read-out: hTRPA1 IC50 90 min, 90 minutes incubation with compound before cinnamaldehyde (about EC80).

human TRPA1 channel, sequence (O75762 whole entry): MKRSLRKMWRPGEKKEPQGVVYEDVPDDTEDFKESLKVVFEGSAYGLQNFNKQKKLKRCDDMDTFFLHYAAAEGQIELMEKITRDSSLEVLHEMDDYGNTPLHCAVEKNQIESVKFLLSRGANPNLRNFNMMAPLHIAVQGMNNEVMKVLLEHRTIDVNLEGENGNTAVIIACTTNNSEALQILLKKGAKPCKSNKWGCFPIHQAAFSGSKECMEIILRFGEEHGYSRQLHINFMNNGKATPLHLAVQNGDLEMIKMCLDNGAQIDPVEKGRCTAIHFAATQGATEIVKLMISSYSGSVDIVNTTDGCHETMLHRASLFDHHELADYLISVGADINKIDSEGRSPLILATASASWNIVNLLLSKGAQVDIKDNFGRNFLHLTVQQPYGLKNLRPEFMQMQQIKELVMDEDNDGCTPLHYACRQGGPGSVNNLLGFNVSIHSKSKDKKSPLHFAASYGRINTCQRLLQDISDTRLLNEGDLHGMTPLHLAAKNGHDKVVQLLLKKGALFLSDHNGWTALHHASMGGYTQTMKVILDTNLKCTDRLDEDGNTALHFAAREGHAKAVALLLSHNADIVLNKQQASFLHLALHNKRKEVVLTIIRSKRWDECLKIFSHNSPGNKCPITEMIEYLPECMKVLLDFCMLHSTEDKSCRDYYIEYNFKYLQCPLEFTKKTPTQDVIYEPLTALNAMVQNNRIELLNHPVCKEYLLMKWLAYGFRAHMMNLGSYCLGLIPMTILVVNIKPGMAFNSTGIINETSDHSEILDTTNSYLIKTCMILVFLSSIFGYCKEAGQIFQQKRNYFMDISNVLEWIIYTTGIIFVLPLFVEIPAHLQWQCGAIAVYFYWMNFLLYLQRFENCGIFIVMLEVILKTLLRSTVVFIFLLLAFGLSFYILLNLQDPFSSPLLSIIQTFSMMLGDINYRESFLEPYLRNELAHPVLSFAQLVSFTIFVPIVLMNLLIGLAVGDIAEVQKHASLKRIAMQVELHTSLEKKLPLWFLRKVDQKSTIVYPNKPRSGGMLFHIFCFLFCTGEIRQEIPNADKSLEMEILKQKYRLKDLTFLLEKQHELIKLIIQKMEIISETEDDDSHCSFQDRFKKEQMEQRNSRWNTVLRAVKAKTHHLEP

In the case of `Cc1nc2nc(C)n(C)c2c(=O)n1Cc1nc([C@@H]2CO[C@@H](c3ccc(Cl)cc3)C2)no1` [Example 109, 1-((3-((3R,5R)-5-(4-chlorophenyl)tetrahydro-furan-3-yl)-1,2,4-oxadiazol-5-yl)methyl)-2,7,8-trimethyl-1,7-dihydro-6H-purin-6-one], the 50% inhibitory concentration (IC50) under setting [1] came to 85 nM and the concentration for half-maximal inhibition (IC50) under setting [2] is 62 nM.
`[2H]c1nc2nc(C)n(Cc3nc([C@@H]4CO[C@@H](c5ccc(Cl)cc5)C4)no3)c(=O)c2n1C` [Example 110, 1-((3-((3R,5R)-5-(4-chlorophenyl)tetrahydro-furan-3-yl)-1,2,4-oxadiazol-5-yl)methyl)-2,7-dimethyl-1,7-dihydro-6H-purin-6-one-8-d]: the concentration for half-maximal inhibition (IC50) reads like this: (hTRPA1 IC50 10 min, 10 minutes incubation with compound before cinnamaldehyde (about EC80)) 9.32 nM; (hTRPA1 IC50 90 min, 90 minutes incubation with compound before cinnamaldehyde (about EC80)) 3.9 nM.
For `Cc1nc2[nH]c(=O)n(C)c2c(=O)n1Cc1nc([C@@H]2CO[C@@H](c3ccc(Cl)cc3)C2)no1` [Example 111, 1-((3-((3R,5R)-5-(4-chlorophenyl)tetrahydro-furan-3-yl)-1,2,4-oxadiazol-5-yl)methyl)-2,7-dimethyl-7,9-dihydro-1H-purine-6,8-dione], the concentration for half-maximal inhibition (IC50) reads like this: under setting [1], 85.8 nM; under setting [2], 34 nM.
In the case of `Nc1nc2nccnc2n1Cc1nc([C@@H]2CO[C@@H](c3ccc(Cl)cc3)C2)no1` [Example 112, 1-((3-((3R,5R)-5-(4-chlorophenyl)tetrahydro-furan-3-yl)-1,2,4-oxadiazol-5-yl)methyl)-1H-imidazo[4,5-b] pyrazin-2-amine], the IC50 runs as follows: under setting [1], 10.8 nM; under setting [2], 3.8 nM.
Regarding `Cc1nc2nc(Cl)n(C)c2c(=O)n1Cc1nc([C@@H]2CO[C@@H](c3ccc(Cl)cc3)C2)no1` [Example 114, 8-chloro-1-((3-((3R,5R)-5-(4-chlorophenyl)tetrahydrofuran-3-yl)-1,2,4-oxadiazol-5-yl)methyl)-2,7-dimethyl-1,7-dihydro-6H-purin-6-one], the concentration for half-maximal inhibition (IC50) stood at 37.8 nM under setting [1] and 22 nM under setting [2].
In the case of `N#Cc1cnn2ncn(Cc3nc([C@@H]4CO[C@@H](c5ccc(Cl)cc5)C4)no3)c(=O)c12` [Example 115, 3-((3-((3R,5R)-5-(4-chlorophenyl)tetrahydro-furan-3-yl)-1,2,4-oxadiazol-5-yl)methyl)-4-oxo-3,4-dihydro-pyrazolo[5,1-f][1,2,4] triazine-5-carbonitrile], the concentration for half-maximal inhibition (IC50) is 94.9 nM under setting [1] and 40 nM under setting [2].
`Cn1cnc2c(C(N)=O)nn(Cc3nc([C@@H]4CO[C@@H](c5ccc(Cl)cc5)C4)no3)c(=O)c21` [Example 116, 6-((3-((3R,5R)-5-(4-chlorophenyl)tetrahydro-furan-3-yl)-1,2,4-oxadiazol-5-yl)methyl)-1-methyl-7-oxo-6,7-dihydro-1H-imidazo [4,5-d]pyridazine-4-carboxamide]: the IC50 runs as follows: under setting [1], 76.5 nM; under setting [2], 39 nM.
Turning to `Cc1n[nH]c2ncn(Cc3nc([C@@H]4CO[C@@H](c5ccc(Cl)cc5)C4)no3)c(=O)c12` [Example 117, 5-((3-((3R,5R)-5-(4-chlorophenyl)tetrahydro-furan-3-yl)-1,2,4-oxadiazol-5-yl)methyl)-3-methyl-1,5-dihydro-4H-pyrazolo[3,4-d] pyrimidin-4-one], the IC50 is, setting by setting: under setting [1], 11.3 nM; under setting [2], 5.9 nM.
The like results for `O=C1CCc2c(ncn(Cc3nc([C@@H]4CO[C@@H](c5ccc(Cl)cc5)C4)no3)c2=O)N1` [Example 118, 3-((3-((3R,5R)-5-(4-chlorophenyl)tetrahydro-furan-3-yl)-1,2,4-oxadiazol-5-yl)methyl)-5,8-dihydropyrido[2,3-d] pyrimidine-4,7(3H,6H)-dione] were, in that order, 96.4 nM and 47 nM.
The like results for `Nc1nc2ncccc2c(=O)n1Cc1nc([C@@H]2CO[C@@H](c3cccc(F)c3)C2)no1` [Example 119, 2-amino-3-((3-((3R,5R)-5-(3-fluorophenyl)tetrahydro-furan-3-yl)-1,2,4-oxadiazol-5-yl)methyl) pyrido[2,3-d]pyrimidin-4(3H)-one] were, in that order, 31.9 nM and 13 nM.
Turning to `Cn1cnc2nc(Cl)n(Cc3nc([C@@H]4CO[C@@H](c5ccc(Cl)cc5)C4)no3)c(=O)c21` [Example 120, 2-chloro-1-((3-((3R,5R)-5-(4-chlorophenyl)tetrahydro-furan-3-yl)-1,2,4-oxadiazol-5-yl)methyl)-7-methyl-1,7-dihydro-6H-purin-6-one], the concentration for half-maximal inhibition (IC50) by setting is: under setting [1], 29.4 nM; under setting [2], 20 nM.
In the case of `Cn1nncc1C(=O)NCc1nc([C@@H]2CO[C@@H](c3ccc(Cl)cc3)C2)no1` [Example 121, N-((3-((3R,5R)-5-(4-chlorophenyl)tetrahydro-furan-3-yl)-1,2,4-oxadiazol-5-yl)methyl)-1-methyl-1H-1,2,3-triazole-5-carboxamide], the concentration for half-maximal inhibition (IC50) turned out to be 111 nM under setting [1] and 49 nM under setting [2].
For the molecule `Cc1cnn2ncn(Cc3nc([C@@H]4CO[C@@H](c5ccc(C#N)cc5)C4)no3)c(=O)c12` [Example 122, 4-((2R,4R)-4-(5-((5-methyl-4-oxopyrazolo[5,1-f][1,2,4]triazin-3(4H)-yl)methyl)-1,2,4-oxadiazol-3-yl)tetrahydrofuran-2-yl)benzonitrile], the IC50 reads like this: under setting [1], 75.8 nM; under setting [2], 39 nM.
For `Cn1cnc2nc(N)n(Cc3nc([C@@H]4CO[C@@H](c5ccc(Cl)cc5)C4)no3)c2c1=O` [Example 123, 8-amino-7-((3-((3R,5R)-5-(4-chlorophenyl)tetrahydro-furan-3-yl)-1,2,4-oxadiazol-5-yl)methyl)-1-methyl-1,7-dihydro-6H-purin-6-one], the IC50 by setting is: under setting [1], 126 nM; under setting [2], 17 nM.
As to `O=c1ccc2c(=O)n(Cc3nc([C@@H]4CO[C@@H](c5ccc(Cl)cc5)C4)no3)cnc2[nH]1` [Example 124, 3-((3-((3R,5R)-5-(4-chlorophenyl)tetrahydro-furan-3-yl)-1,2,4-oxadiazol-5-yl)methyl) pyrido[2,3-d]pyrimidine-4,7(3H,8H)-dione], the IC50 is 12.7 nM under setting [1] and 16 nM under setting [2].
Take `Cn1cnc2nc(N)n(Cc3nc([C@@H]4CO[C@@H](c5cccc(F)c5)C4)no3)c(=O)c21` [Example 125, 2-amino-1-((3-((3R,5R)-5-(3-fluorophenyl)tetrahydrofuran-3-yl)-1,2,4-oxadiazol-5-yl)methyl)-7-methyl-1,7-dihydro-6H-purin-6-one]: the half-inhibitory concentration (IC50) is 40.5 nM under setting [1] and 3.1 nM under setting [2].
The like results for `Nc1nc2ncn(Cc3nc([C@@H]4CO[C@@H](c5ccc(F)cc5)C4)no3)c(=O)c2s1` [Example 126, 2-amino-6-((3-((3R,5R)-5-(4-fluorophenyl)tetrahydrofuran-3-yl)-1,2,4-oxadiazol-5-yl)methyl) thiazolo[4,5-d]pyrimidin-7(6H)-one] were, in that order, 89.9 nM and 36 nM.
For `Cc1cnn2nc(N)n(Cc3nc([C@@H]4CO[C@@H](c5cccc(F)c5)C4)no3)c(=O)c12` [Example 127, 2-amino-3-((3-((3R,5R)-5-(3-fluorophenyl)tetrahydro-3-yl)-1,2,4-oxadiazol-5-yl)methyl)-5-methylpyrazolo[5,1-f] [1,2,4]triazin-4(3H)-one], the half-maximal inhibitory concentration (IC50) is, setting by setting: under setting [1], 17.9 nM; under setting [2], 2.9 nM.
`Cc1cnc(N)n(Cc2nc([C@@H]3CO[C@@H](c4ccc(Cl)cc4)C3)no2)c1=O` [Example 128, 2-amino-3-((3-((3R,5R)-5-(4-chlorophenyl)tetra-hydrofuran-3-yl)-1,2,4-oxadiazol-5-yl)methyl)-5-methylpyrimidin-4(3H)-one]: the 50% inhibitory concentration (IC50) runs as follows: under setting [1], 146 nM; under setting [2], 67 nM.
The like results for `Nc1nc2ncn(Cc3nc([C@@H]4CO[C@@H](c5ccc(Cl)cc5)C4)no3)c(=O)c2s1` [Example 129, 2-amino-6-((3-((3R,5R)-5-(4-chlorophenyl)tetrahydrofuran-3-yl)-1,2,4-oxadiazol-5-yl)methyl)thiazolo[4,5-d] pyrimidin-7(6H)-one] were, in that order, 15.1 nM and 5.6 nM.
Taken in the same sequence, the figures for `Nc1nc(=O)c2cccnc2n1Cc1nc([C@@H]2CO[C@@H](c3ccc(F)cc3)C2)no1` [Example 130, 2-amino-1-((3-((3R,5R)-5-(4-fluorophenyl)tetra-hydrofuran-3-yl)-1,2,4-oxadiazol-5-yl)methyl) pyrido[2,3-d]pyrimidin-4(1H)-one] were 83.3 nM and 15 nM.
Taken in the same sequence, the figures for `Cn1cnc2c(C#N)nn(Cc3nc([C@@H]4CO[C@@H](c5ccc(Cl)cc5)C4)no3)c(=O)c21` [Example 131, 6-((3-((3R,5R)-5-(4-chlorophenyl)tetrahydro-furan-3-yl)-1,2,4-oxadiazol-5-yl)methyl)-1-methyl-7-oxo-6,7-dihydro-1H-imidazo[4,5-d]pyridazine-4-carbonitrile] were 7.42 nM and 3.1 nM.
As to `Cc1ccnc2nc(N)n(Cc3nc([C@@H]4CO[C@@H](c5ccc(F)cc5)C4)no3)c(=O)c12` [Example 133, 2-amino-3-((3-((3R,5R)-5-(4-fluorophenyl)tetra-hydrofuran-3-yl)-1,2,4-oxadiazol-5-yl)methyl)-5-methylpyrido[2,3-d] pyrimidin-4(3H)-one], the IC50 reads like this: under setting [1], 13.4 nM; under setting [2], 1.4 nM.
Regarding `Cc1ccnc2c1c(=O)nc(N)n2Cc1nc([C@@H]2CO[C@@H](c3ccc(Cl)cc3)C2)no1` [Example 134, 2-amino-1-((3-((3R,5R)-5-(4-chlorophenyl)tetrahydro-furan-3-yl)-1,2,4-oxadiazol-5-yl)methyl)-5-methylpyrido[2,3-d] pyrimidin-4(1H)-one], the IC50 by setting is: under setting [1], 20 nM; under setting [2], 6 nM.
